# “Also recorded” adds a separate entry of the source.
# B1: the enzyme of the present invention: D-aminoacylase from the Defluvibacter sp. A131-3 strain obtained in Example 3; amino acid sequence of SEQ ID NO. 2 (protein)
# chain: MAKSFDLVIRNGRVVDPETGHDAIADVAVSGGQIVAVGPSLGAGKREIDATGLVVSPGFIDLHAHGQSIPADRMQAFDGVTTALELEVGSLPVARWYEQQQAGGRVLNYGTAAAWIFARKAVMIGMELDGRLAPIEMMGAGSDDMRWSVDAATAPQTDDIVRLTRQALEEGALGIGIPHGYAAGAGVKEMTRICELAAEFDRPTYTHIPYMSNIDPRSSVEAYVQLIGLAGATGAHMHICHLNSTSLRDVEDAARLIAKAQAQGLPITTEAYPYGTGSTVMSARFFIDSDFAERTGTGYDAIQVVSSGKRFENRDELVAARAETPEALVLWHYLDTDNPHDQRLLDVSVMYPGGAIASDAVPWSNPDGTLYTGEEWPLPADKTSHPRSAGTYTRFLAQWVREREAVPLVEAIAKCALIPAQIVERCSDVFRRKGRLQPGCDADIVIFDLESVQDRSTFEDMHLAADGMVHVLVNGEAVIANGELVRDARSGRAIRSTPR
# modifications: Defluvibacter sp.A131-3
# What was measured:
# [1] = tested on: D-aminoacylase from the Defluvibacter sp. A131-3 strain; test: Substrate specificity, acylase activity measurement using D-/L-amino acid oxidase chromogenic reagent; assay type: biochemical; details: for Relative activity (% in relation to Met): activity of N-acetyl-D-methionine = 100; for Relative activity (% in relation to Met) / Relative activity (% in relation to Val): 100 mmol/L substrate solution, pH 8, 37° C., 30 minutes; for Relative activity (% in relation to Val): activity of N-acetyl-D-valine = 100; for Substrate specificity: whether the enzyme acts on the substrate: D- or L-amino acid oxidase detection
# Source text: (4) Substrate specificity: Substrate specificity of the acylase of the present invention was confirmed by using the following N-acetyl-D-amino acids and N-acetyl-L-amino acids as the substrate and combining therewith the D-amino acid oxidase or the L-amino acid oxidase. The acylase of the present invention acts on the following N-acetyl-D-amino acids but not on the N-acetyl-L-amino acids.
# In the measurement of the reactivity with the L-amino acids, an oxidase for L-amino acids is used instead of the D-amino acid oxidase in the activity measurement as will be described below.
# 4. Substrate specificity was determined by an activity measurement method using the chromogenic reagents for the D- and L-amino acid oxidases as described above.
# [2] = tested on: D-aminoacylase from the Defluvibacter sp. A131-3 strain; test: Effects of inhibitor on D-aminoacylase activity (D-valine produced, HPLC); assay type: biochemical; details: for Effects of inhibitors on activity: each at 5 mmol/L; for Relative activity (%): inhibitor 5 mmol/L, 0.5 mol/L N-acetyl-D-valine, enzyme 500 U, 40° C., 1 day, no addition of inhibitor = 100%
# Experimental: The detection was conducted at 230 nm. The column was analyzed at a temperature of 30° C. The enzymatic activity was evaluated in terms of the ratio between the area of the acetyl compound and the free compound, and the resolution rate was expressed as a […]
# [3] = tested on: D-aminoacylase from Defluvibacter sp. A131-3 strain; test: Production of D-valine by resolution of N-acetyl-D,L-valine (HPLC); assay type: biochemical; details: 15% aqueous N-acetyl-D,L-valine, enzyme 200 U/mL, 40° C.
# Experimental: It was then confirmed that the strains that had been selected by the chromogenic process show rapid reduction of the N-acetyl-D-valine and increase of the D-valine in an amount corresponding to the reduction of the N-acetyl-D-valine.
# By using 15% aqueous solution of N-acetyl-D,L-valine as a substrate, D-aminoacylase from Defluvibacter sp. A131-3 strain was added with in an amount of 200 U per 1 ml of the aqueous solution of the substrate, and the reaction was allowed to proceed at 40° C. for 3 days. The rate of D-valine production by resolution from the N-acetyl-D,L-valine was measured by the HPLC method described in Example 1 (2).
# [4] = tested on: D-aminoacylase from the Defluvibacter sp. A131-3 strain; test: Effects of metal ions on D-aminoacylase activity (D-valine produced, HPLC); assay type: biochemical; details: for Relative activity (%): metal ion 1.0 mmol/L, 0.5 mol/L N-acetyl-D-valine, enzyme 500 U, 40° C., 1 day, no metal addition = 100%; for Effects of metal ions on activity: each at 1 mmol/L
# [5] = Isoelectric point by two-dimensional electrophoresis for denatured system; assay type: physicochemical, Defluvibacter sp. A131-3; details: calculated from mobility of 2D-protein isoelectric point markers
# Experimental: (3) Isoelectric point: Isoelectric point is measured on the basis of two-dimensional electrophoresis process by two-dimensional electrophoresis for denatured system (using IPG tube gel “Daiichi” 4-10 and PAG Large “Daiichi” 2D-10/20 manufactured by Daiichi Pure Chemicals Co., Ltd.). The pI value of 5.3 is calculated from mobility of 2D-protein isoelectric point markers (2D-protein isoelectric point markers “Daiichi” manufactured by Daiichi Pure Chemicals Co., Ltd.).
# 3. Protein isoelectric point was measured on the bases of two-dimensional electrophoresis process by two-dimensional electrophoresis for denatured system (using IPG tube gel “Daiichi” 4-10 and PAG Large “Daiichi” 2D-10/20 manufactured by Daiichi Pure Chemicals Co., Ltd.). The pI value of the enzyme of the present invention calculated from the mobility of the pI values 5.1, 5.2, 5.3, 5.4, 5.7, 6.0, 6.2, 6.4, 6.5, 6.7, 6.8, 7.0, and 7.1 of the 2D-protein isoelectric point markers (2D-protein isoelectric point markers “Daiichi” manufactured by Daiichi Pure Chemicals Co., Ltd.) was 5.3.
# [6] = Optimal temperature of the enzyme; assay type: biochemical, Defluvibacter sp. A131-3; details: pH 8, 30 minutes
# [7] = 30° C., 1 day
Molecule,Relative activity (% in relation to Met) [1],Relative activity (% in relation to Val) [1],Substrate specificity: whether the enzyme acts on the substrate [1],other results
"CC(=O)N[C@@H](CCC(=O)O)C(=O)O [N-Ac-L-Glu, N-acetyl-L-glutamic acid]",0%,0%,,
"CC(=O)N[C@H](Cc1ccccc1)C(=O)O [N-Ac-D-Phe, N-acetyl-D-phenylalanine]",37%,4.8%,to some extent; also recorded: acting on,
OCCS [2-mercaptoethanol],,,,Effects of inhibitors on activity [2]: inhibited
"CC(=O)N[C@H](C(=O)O)C(C)C [N-Ac-L-Val, N-acetyl-L-valine]",0%,0%,does not act on,Decomposition of the L-form by the enzyme [3]: not decomposed at all
"CC(=O)N[C@H](CC(C)C)C(=O)O [N-Ac-D-Leu, N-acetyl-D-leucine]",555%,73%,to some extent; also recorded: acting on,
"CSCC[C@H](NC(C)=O)C(=O)O [N-Ac-L-Met, N-acetyl-L-methionine]",0%,0%,does not act on,
"CC(=O)N[C@@H](C(=O)O)C(C)C [N-Ac-D-Val, N-acetyl-D-valine]",762%,100%,acted most effectively; also recorded: acting on,
"[Cl-].[Na+] [Sodium chloride, sodium chloride]",,,,Relative activity (%) [4]: 99%
"O[C@H](CS)[C@H](O)CS (racemic) [Dithiothreitol, dithiothreitol]",,,,Effects of inhibitors on activity [2]: inhibited; Relative activity (%) [2]: 38%
"[Cl-].[K+] [Potassium chloride, potassium chloride]",,,,Relative activity (%) [4]: 92%
"O.O.O.O.[Cl][Mn][Cl] [Manganese chloride, manganese (II) chloride tetrahydrate]",,,,Effects of metal ions on activity [4]: inhibited; Relative activity (%) [4]: 48%
"CC(=O)N[C@@H](Cc1ccccc1)C(=O)O [N-Ac-L-Phe, N-acetyl-L-phenylalanine]",0%,0%,does not act on,
"O.O.O.O.O.O.[Cl][Ni][Cl] [Nickel chloride, nickel chloride hexahydrate]",,,,Effects of metal ions on activity [4]: inhibited; Relative activity (%) [4]: 20%
"CSCC[C@@H](NC(C)=O)C(=O)O [N-Ac-D-Met, N-acetyl-D-methionine]",100%,13%,to some extent; also recorded: acting on,
"c1cnc2c(c1)ccc1cccnc12 [O-phenanthroline, o-phenanthroline]",,,,Effects of inhibitors on activity [2]: inhibited; Relative activity (%) [2]: 53%; Relative activity (%) ([2]; listed as o-phenanthroline): less than 60%
"O=C(O)CN(CCN(CC(=O)O)CC(=O)O)CC(=O)O [Ethylenediamine tetraacetic acid, ethylenediamine tetraacetic acid]",,,,Relative activity (%) [2]: 112%
N[C@@H](CS)C(=O)O [L-cysteine],,,,Effects of inhibitors on activity [2]: inhibited
"CC(=O)N[C@@H](Cc1c[nH]c2ccccc12)C(=O)O [N-Ac-L-Trp, N-acetyl-L-tryptophan]",0%,0%,does not act on,
"CC(=O)N[C@@H](Cc1ccc(O)cc1)C(=O)O [N-Ac-L-Tyr, N-acetyl-L-tyrosine]",0%,0%,does not act on,
"[Cl-].[Cl-].[Zn+2] [Zinc chloride, zinc chloride]",,,,Effects of metal ions on activity [4]: inhibited; Relative activity (%) [4]: 31%
"[Na+].[Na+].[O]=[Mo](=[O])([O-])[O-] [Sodium molybdate, sodium molybdate]",,,,Relative activity (%) [4]: 105%
"CC(=O)N[C@H](Cc1ccc(O)cc1)C(=O)O [N-Ac-D-Tyr, N-acetyl-D-tyrosine]",8.4%,1.1%,to some extent; also recorded: acting on,
"CC(=O)N[C@H](Cc1c[nH]c2ccccc12)C(=O)O [N-Ac-D-Trp, N-acetyl-D-tryptophan]",1.1%,0.2%,to some extent,Substrate specificity: whether the enzyme acts on the substrate ([1]; listed as N-acetyl-D-triptophan): acting on
"NC(=O)CI [Iodacetamide, iodacetamide]",,,,Relative activity (%) [2]: 107%
CCN1C(=O)C=CC1=O [N-ethylmaleimide],,,,Relative activity (%) [2]: 100%
"O.O.O.O.O.O.[Cl-].[Cl-].[Co+2] [Cobalt (II) chloride, cobalt (II) chloride hexahydrate]",,,,Effects of metal ions on activity [4]: inhibited; Relative activity (%) [4]: 27%
"CC(=O)N[C@H](CCC(=O)O)C(=O)O [N-Ac-D-Glu, N-acetyl-D-glutamic acid]",0%,0%,,
"CC(=O)N[C@@H](CC(C)C)C(=O)O [N-Ac-L-Leu, N-acetyl-L-leucine]",0%,0%,does not act on,
iron (III) chloride hexahydrate,,,,Relative activity (%) [4]: 88%
B1,,,,Isoelectric point (pI value) [5]: 5.3; Optimal temperature [6]: 37 °C; Residual activity at pH 6 or pH 11 [7]: not 0%; pH at which the enzyme is most stable [7]: ~9 pH
